Measurements taken from ChEMBL document CHEMBL3763135, “Synthesis and evaluation of thiophene-based guanylhydrazones (iminoguanidines) efficient against panel of voriconazole-resistant fungal isolates” (Bioorg Med Chem, 2016).
Converted amounts (≈) assume the structure as drawn. The source made the active and inactive calls. The calls are words filed in the database; no cut-off is given here.

Key:
Candida albicans [1] = assay: Antifungal activity against Candida albicans ATCC 10231 by broth dilution method; format: functional
Candida albicans [2] = assay: Antifungal activity against Candida albicans CA5 by broth dilution method; format: functional
Pichia kudriavzevii [3] = assay: Antifungal activity against Candida krusei ATCC 34135 by broth dilution method; format: functional
Candida parapsilosis [4] = assay: Antifungal activity against Candida parapsilosis C27 by broth dilution method; format: functional
Aspergillus fumigatus = assay: Antifungal activity against Aspergillus fumigatus ATCC 13073 by broth dilution method; format: functional
Fusarium oxysporum = assay: Antifungal activity against Fusarium oxysporum AB18 by broth dilution method; format: functional
Microsporum canis = assay: Antifungal activity against Microsporum canis DMT2 by broth dilution method; format: functional
[5] = system: Trichophyton mentagrophytes; assay: Antifungal activity against Trichophyton mentagrophytes DMT4 by broth dilution method; format: functional
Candida albicans [6] = assay: Antifungal activity against Candida albicans CA5 assessed as fungal growth at sub-MIC measured over 12 hrs by time-kill dependence-based spectrophotometric analysis relative to DMSO control; format: functional
Candida albicans [7] = assay: Antifungal activity against Candida albicans CA5 assessed as fungal growth at sub-MIC measured after 24 hrs by time-kill dependence-based spectrophotometric analysis relative to DMSO control; format: functional, organism-based
[8] = Induction of membrane damage in PC/PS liposome assessed as calcein release at MIC after 30 mins by fluorescence-based liposome leakage assay; format: functional
Candida albicans [9] = assay: Antibiofilm activity against Candida albicans assessed as inhibition of Spider medium-induced hyphae formation at sub-MIC after 24 hrs by propidium iodide and FITC-conjugated concanavaline A staining based fluorescence microscopy; format: functional, organism-based
Candida albicans [10] = assay: Antibiofilm activity against Candida albicans ATCC 10231 assessed as disruption of preformed biofilm after 24 hrs by concanavalin A-FITC-staining based fluorescence microscopic analysis; format: functional
Pichia kudriavzevii [11] = assay: Antibiofilm activity against Pichia kudriavzevii ATCC 34135 assessed as disruption of preformed biofilm after 24 hrs by concanavalin A-FITC-staining based fluorescence microscopic analysis; format: functional
Candida parapsilosis [12] = assay: Antibiofilm activity against Candida parapsilosis C27 assessed as disruption of preformed biofilm after 24 hrs by concanavalin A-FITC-staining based fluorescence microscopic analysis; format: functional
[13] = Toxicity against zebrafish embryo assessed as dead embryos at 50 ug/ml measured at 96 hrs post fertilization by inverted microscopic analysis; format: organism-based, Danio rerio; details: read-out: Activity
[14] = Toxicity against zebrafish embryo assessed as dead embryos at 25 ug/ml measured at 96 hrs post fertilization by inverted microscopic analysis; format: organism-based, Danio rerio; details: read-out: Activity
[15] = Toxicity against zebrafish embryo assessed as dead embryos at 10 ug/ml measured at 96 hrs post fertilization by inverted microscopic analysis; format: organism-based, Danio rerio; details: read-out: Activity
[16] = Toxicity against zebrafish embryo assessed as dead embryos at 5 ug/ml measured at 96 hrs post fertilization by inverted microscopic analysis; format: organism-based, Danio rerio; details: read-out: Activity
[17] = Toxicity against zebrafish embryo assessed as dead embryos at 2.5 ug/ml measured at 96 hrs post fertilization by inverted microscopic analysis; format: organism-based, Danio rerio; details: read-out: Activity
Danio rerio [18] = organism: Danio rerio; assay: Toxicity against zebrafish embryo assessed as teratogenic embryos at 50 ug/ml measured at 96 hrs post fertilization by inverted microscopic analysis; format: organism-based; details: in vivo
Danio rerio [19] = organism: Danio rerio; assay: Toxicity against zebrafish embryo assessed as teratogenic embryos at 25 ug/ml measured at 96 hrs post fertilization by inverted microscopic analysis; format: organism-based; details: in vivo
Danio rerio [20] = organism: Danio rerio; assay: Toxicity against zebrafish embryo assessed as teratogenic embryos at 10 ug/ml measured at 96 hrs post fertilization by inverted microscopic analysis; format: organism-based; details: in vivo
Danio rerio [21] = organism: Danio rerio; assay: Toxicity against zebrafish embryo assessed as teratogenic embryos at 5 ug/ml measured at 96 hrs post fertilization by inverted microscopic analysis; format: organism-based; details: in vivo
Danio rerio [22] = organism: Danio rerio; assay: Toxicity against zebrafish embryo assessed as teratogenic embryos at 2.5 ug/ml measured at 96 hrs post fertilization by inverted microscopic analysis; format: organism-based; details: in vivo
Danio rerio [23] = organism: Danio rerio; assay: Toxicity against zebrafish embryo assessed as effect on tail tip at 5 ug/ml measured at 96 hrs post fertilization by inverted microscopic analysis; format: organism-based; details: in vivo
Danio rerio [24] = organism: Danio rerio; assay: Toxicity against zebrafish embryo assessed as effect on tail tip at 2.5 ug/ml measured at 96 hrs post fertilization by inverted microscopic analysis; format: organism-based; details: in vivo
Danio rerio [25] = organism: Danio rerio; assay: Toxicity against zebrafish embryo assessed as growth retardation at 5 ug/ml measured at 96 hrs post fertilization by inverted microscopic analysis; format: organism-based; details: in vivo
Danio rerio [26] = organism: Danio rerio; assay: Toxicity against zebrafish embryo assessed as growth retardation at 2.5 ug/ml measured at 96 hrs post fertilization by inverted microscopic analysis; format: organism-based; details: in vivo
[27] = Toxicity against zebrafish embryo measured at 96 hrs post fertilization by inverted microscopic analysis; format: organism-based, Danio rerio; details: zebrafish embryos
Danio rerio [28] = organism: Danio rerio; assay: Toxicity against zebrafish embryo assessed as normal embryos at 50 ug/ml measured at 96 hrs post fertilization by inverted microscopic analysis; format: organism-based; details: in vivo
Danio rerio [29] = organism: Danio rerio; assay: Toxicity against zebrafish embryo assessed as normal embryos at 25 ug/ml measured at 96 hrs post fertilization by inverted microscopic analysis; format: organism-based; details: in vivo
Danio rerio [30] = organism: Danio rerio; assay: Toxicity against zebrafish embryo assessed as normal embryos at 10 ug/ml measured at 96 hrs post fertilization by inverted microscopic analysis; format: organism-based; details: in vivo
Danio rerio [31] = organism: Danio rerio; assay: Toxicity against zebrafish embryo assessed as normal embryos at 5 ug/ml measured at 96 hrs post fertilization by inverted microscopic analysis; format: organism-based; details: in vivo
Danio rerio [32] = organism: Danio rerio; assay: Toxicity against zebrafish embryo assessed as normal embryos at 2.5 ug/ml measured at 96 hrs post fertilization by inverted microscopic analysis; format: organism-based; details: in vivo
Danio rerio [33] = organism: Danio rerio; assay: Toxicity against zebrafish embryo assessed as effect on notochord at 5 ug/ml measured at 96 hrs post fertilization by inverted microscopic analysis; format: organism-based; details: in vivo
Danio rerio [34] = organism: Danio rerio; assay: Toxicity against zebrafish embryo assessed as effect on notochord at 2.5 ug/ml measured at 96 hrs post fertilization by inverted microscopic analysis; format: organism-based; details: in vivo
Danio rerio [35] = organism: Danio rerio; assay: Toxicity against zebrafish embryo assessed as effect on eyes at 5 ug/ml measured at 96 hrs post fertilization by inverted microscopic analysis; format: organism-based; details: in vivo
Danio rerio [36] = organism: Danio rerio; assay: Toxicity against zebrafish embryo assessed as effect on eyes at 2.5 ug/ml measured at 96 hrs post fertilization by inverted microscopic analysis; format: organism-based; details: in vivo
Danio rerio [37] = organism: Danio rerio; assay: Toxicity against zebrafish embryo assessed as effect on otoliths at 5 ug/ml measured at 96 hrs post fertilization by inverted microscopic analysis; format: organism-based; details: in vivo
Danio rerio [38] = organism: Danio rerio; assay: Toxicity against zebrafish embryo assessed as effect on otoliths at 2.5 ug/ml measured at 96 hrs post fertilization by inverted microscopic analysis; format: organism-based; details: in vivo
Danio rerio [39] = assay: Toxicity against zebrafish embryo assessed as pericardial edema at 5 ug/ml measured at 96 hrs post fertilization by inverted microscopic analysis; format: organism-based; details: in vivo
Danio rerio [40] = assay: Toxicity against zebrafish embryo assessed as pericardial edema at 2.5 ug/ml measured at 96 hrs post fertilization by inverted microscopic analysis; format: organism-based; details: in vivo
Danio rerio [41] = assay: Toxicity against zebrafish embryo assessed as yolk edema at 5 ug/ml measured at 96 hrs post fertilization by inverted microscopic analysis; format: organism-based; details: in vivo
Danio rerio [42] = assay: Toxicity against zebrafish embryo assessed as yolk edema at 2.5 ug/ml measured at 96 hrs post fertilization by inverted microscopic analysis; format: organism-based; details: in vivo
Danio rerio [43] = organism: Danio rerio; assay: Toxicity against zebrafish embryo assessed as effect on heart beat at 5 ug/ml measured at 96 hrs post fertilization by inverted microscopic analysis; format: organism-based; details: in vivo
Danio rerio [44] = organism: Danio rerio; assay: Toxicity against zebrafish embryo assessed as effect on heart beat at 2.5 ug/ml measured at 96 hrs post fertilization by inverted microscopic analysis; format: organism-based; details: in vivo
Danio rerio [45] = organism: Danio rerio; assay: Toxicity against zebrafish embryo assessed as effect on blood circulation at 5 ug/ml measured at 96 hrs post fertilization by inverted microscopic analysis; format: organism-based; details: in vivo
Danio rerio [46] = organism: Danio rerio; assay: Toxicity against zebrafish embryo assessed as effect on blood circulation at 2.5 ug/ml measured at 96 hrs post fertilization by inverted microscopic analysis; format: organism-based; details: in vivo
Danio rerio [47] = organism: Danio rerio; assay: Toxicity against zebrafish embryo assessed as unhatched embryos at 5 ug/ml measured at 96 hrs post fertilization by inverted microscopic analysis; format: organism-based; details: in vivo
Danio rerio [48] = organism: Danio rerio; assay: Toxicity against zebrafish embryo assessed as unhatched embryos at 2.5 ug/ml measured at 96 hrs post fertilization by inverted microscopic analysis; format: organism-based; details: in vivo
Danio rerio [49] = organism: Danio rerio; assay: Toxicity against zebrafish embryo assessed as head malformation at 5 ug/ml measured at 96 hrs post fertilization by inverted microscopic analysis; format: organism-based; details: in vivo
Danio rerio [50] = organism: Danio rerio; assay: Toxicity against zebrafish embryo assessed as head malformation at 2.5 ug/ml measured at 96 hrs post fertilization by inverted microscopic analysis; format: organism-based; details: in vivo
Danio rerio [51] = organism: Danio rerio; assay: Toxicity against zebrafish embryo assessed as skeletal deformities at 5 ug/ml measured at 96 hrs post fertilization by inverted microscopic analysis; format: organism-based; details: in vivo
Danio rerio [52] = organism: Danio rerio; assay: Toxicity against zebrafish embryo assessed as skeletal deformities at 2.5 ug/ml measured at 96 hrs post fertilization by inverted microscopic analysis; format: organism-based; details: in vivo
MRC5 = assay: Cytotoxicity against human MRC5 cells after 48 hrs by MTT assay; format: cell-based; details: MRC5, 48 h
[53] = Hemolytic effect in sheep RBC assessed as release of hemoglobin at MIC after 1 hr; format: ADME, cell-based, Ovis aries, Erythrocyte; details: sheep red blood cells, read-out: Activity
[54] = Hemolytic effect in sheep RBC assessed as release of hemoglobin at cytotoxic IC50 after 1 hr; format: cell-based, Ovis aries, Erythrocyte; details: sheep red blood cells, read-out: Activity
Candida albicans [55] = assay: Induction of DNA intercalation with Candida albicans genomic DNA at 25 ug/ml after 12 hrs by ethidium bromide staining based gel electrophoresis method

## C[C@@H](c1ncncc1F)[C@](O)(Cn1cncn1)c1ccc(F)cc1F [VORICONAZOLE]
Candida albicans [1]
  MIC: 0.5 µg/mL (≈ 1.43 µM)
Candida albicans [2]
  MIC: inactive
Pichia kudriavzevii [3]
  MIC: 0.06 µg/mL (≈ 0.172 µM)
Candida parapsilosis [4]
  MIC: inactive
Aspergillus fumigatus
  MIC: 0.06 µg/mL (≈ 0.172 µM)
Fusarium oxysporum
  MIC: inactive
Microsporum canis
  MIC: 0.5 µg/mL (≈ 1.43 µM)
[5]
  MIC: 0.25 µg/mL (≈ 0.716 µM)
Candida albicans [6]
  Activity: Active
Candida albicans [7]
  Activity: inactive
[8]
  Activity: 12%
Candida albicans [9]
  Activity: Active
Candida albicans [10]
  MBEC: 250 µg/mL
Pichia kudriavzevii [11]
  MBEC: 250 µg/mL
Candida parapsilosis [12]
  MBEC: inactive
[13]
  mortality at 96 h, 50 ug/ml: 100%
[14]
  mortality at 96 h, 25 ug/ml: 100%
[15]
  mortality at 96 h, 10 ug/ml: 100%
[16]
  mortality at 96 h, 5 ug/ml: 80%
[17]
  mortality at 96 h, 2.5 ug/ml: 36.7%
Danio rerio [18]
  Activity: 0%
Danio rerio [19]
  Activity: 0%
Danio rerio [20]
  Activity: 0%
Danio rerio [21]
  Activity: 20%
Danio rerio [22]
  Activity: 63.33%
Danio rerio [23]
  Activity: 0%
Danio rerio [24]
  Activity: 0%
Danio rerio [25]
  Activity: 100%
Danio rerio [26]
  Activity: 100%
[27]
  LC50 at 96 h: 3.1 µg/mL (≈ 8.87 µM)
Danio rerio [28]
  Activity: 0%
Danio rerio [29]
  Activity: 0%
Danio rerio [30]
  Activity: 0%
Danio rerio [31]
  Activity: 0%
Danio rerio [32]
  Activity: 0%
Danio rerio [33]
  Activity: 0%
Danio rerio [34]
  Activity: 0%
Danio rerio [35]
  Activity: 100%
Danio rerio [36]
  Activity: 100%
Danio rerio [37]
  Activity: 100%
Danio rerio [38]
  Activity: 100%
Danio rerio [39]
  Activity: 100%
Danio rerio [40]
  Activity: 100%
Danio rerio [41]
  Activity: 100%
Danio rerio [42]
  Activity: 0%
Danio rerio [43]
  Activity: 100%
Danio rerio [44]
  Activity: 0%
Danio rerio [45]
  Activity: 100%
Danio rerio [46]
  Activity: 0%
Danio rerio [47]
  Activity: 0%
Danio rerio [48]
  Activity: 0%
Danio rerio [49]
  Activity: 100%
Danio rerio [50]
  Activity: 100%
Danio rerio [51]
  Activity: 100%
Danio rerio [52]
  Activity: 94.74%

## Cl.N=C(N)N/N=C/c1ccc(-c2ccccc2)o1
Candida albicans [1]
  MIC: 7.8 µg/mL
Candida albicans [2]
  MIC: 15.6 µg/mL
Pichia kudriavzevii [3]
  MIC: 50 µg/mL
Candida parapsilosis [4]; Lodderomyces parapsilosis
  MIC: 50 µg/mL
Aspergillus fumigatus
  MIC: 125 µg/mL
Fusarium oxysporum
  MIC: 125 µg/mL
Microsporum canis
  MIC: 1.56 µg/mL
[5]
  MIC: 6.25 µg/mL
MRC5
  IC50: 20 µg/mL
[53]
  hemolysis at 1 h: ≤ 10%
[54]
  hemolysis at 1 h: ≤ 10%
Candida albicans [55]
  Activity: Active
Candida albicans [9]
  Activity: Active
Candida albicans [10]
  MBEC: 500 µg/mL
Pichia kudriavzevii [11]
  MBEC: 500 µg/mL
Candida parapsilosis [12]
  MBEC: 1000 µg/mL
